System: A. parvosata
Assay: Susceptibility of A. parvosata to antibiotic disks
Format: cell-based, Actinomadura parvosata
Conditions: BBL susceptibility disks on nutrient agar; rifampin 5 ug, penicillin 10 U; 1 week at 28°C
Procedure: Susceptibility of A. parvosata to antibiotics was examined by placing BBL susceptibility disks on nutrient agar plates seeded with A. parvosata. Plates were placed at 4°C for 1 hour to permit diffusion of the antibiotics. Diameters of the zones of inhibition were measured after incubation for 1 week at 28°C.

Compound	susceptibility of A. parvosata to antibiotic disks (zones of inhibition)
penicillin	resistant
CO[C@H]1/C=C/O[C@@]2(C)Oc3c(C)c(O)c4c(O)c(c(/C=N/N5CCN(C)CC5)c(O)c4c3C2=O)NC(=O)/C(C)=C\C=C\[C@H](C)[C@H](O)[C@@H](C)[C@@H](O)[C@@H](C)[C@H](OC(C)=O)[C@@H]1C [rifampin]	resistant

— patent EP0255256A2, “Antibiotics produced by actinomadura parvosata” (SMITHKLINE BECKMAN CORPORATION, priority 1986, dated 1988)
